Read-outs that look alike come from different tables or passages of the source.

The target of the experiment is T1, human Bradykinin B1 receptor (Homo sapiens, UniProt P46663).
T1 construct: host or cells: CHO-K1
T1 sequence (P46663 1-353): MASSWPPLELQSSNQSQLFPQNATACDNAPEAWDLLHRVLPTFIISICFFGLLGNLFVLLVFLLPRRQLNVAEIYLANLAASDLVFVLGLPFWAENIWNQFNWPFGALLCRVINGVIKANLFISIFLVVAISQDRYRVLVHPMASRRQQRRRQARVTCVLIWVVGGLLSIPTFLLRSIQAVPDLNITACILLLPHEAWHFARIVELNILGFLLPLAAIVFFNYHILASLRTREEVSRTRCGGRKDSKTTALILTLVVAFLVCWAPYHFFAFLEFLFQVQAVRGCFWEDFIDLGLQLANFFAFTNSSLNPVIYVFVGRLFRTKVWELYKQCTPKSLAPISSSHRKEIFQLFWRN
The experiment can be described thus: Calcium flux Assay (FLIPR) with recombinant CHO-K1 cells expressing human Bradykinin B1 receptor, in presence (hB1 IC50) or absence (hB1 free IC50) of 0.1% BSA. Type of experiment: cell-based.

The mark [1] stands for this setting: in presence of 0.1% BSA, read-out: hB1 IC50.
[2] abbreviates: in absence of 0.1% BSA, read-out: hB1 free IC50.

Consider `CN(C)c1ccc(-c2ccc(NC(=O)C3(c4cccc(Cl)c4)CC3)cc2-c2nnn[nH]2)cn1` [Example 169, 1-(3-chlorophenyl)-N-{4-[6-(dimethylamino)pyridin-3-yl]-3-(1H-tetrazol-5-yl)phenyl} cyclopropane-carboxamide], for which the IC50 under setting [1] stood at 0.117 µM.
Regarding `COc1ccc(-c2ccc(NC(=O)C3(c4cc(F)ccc4C)CC3)cc2-c2nnn[nH]2)cc1OC` [Example 255, N-[3′,4′-dimethoxy-2-(1H-tetrazol-5-yl)biphenyl-4-yl]-1-(5-fluoro-2-methylphenyl)cy-clopropanecar-boxamide], the IC50 came out at 0.702 µM under setting [2] and 0.452 µM under setting [1].
Turning to `COc1ccc(-c2ccc(NC(=O)C3(c4ccccc4C)CC3)cc2-c2nnn[nH]2)cc1OC` [Example 37, N-[3′,4′-dimethoxy-2-(1H-tetrazol-5-yl)biphenyl-4-yl]-1-(2-methylphenyl) cyclopropane-carboxamide], the IC50 under setting [1] was found to be 1.83 µM.
As to `COc1ccc(-c2ccc(NC(=O)C3(c4cccc(Cl)c4)CC3)cc2-c2nnn[nH]2)cc1C(F)(F)F` [Example 132, 1-(3-chlorophenyl)-N-[4′-methoxy-2-(1H-tetrazol-5-yl)-3′-(trifluoromethyl)biphenyl-4-yl]cyclopropane carboxamide], under setting [2], the IC50 is 0.234 µM.
For the compound `O=C(Nc1ccc(-n2cc(C(F)F)cn2)c(-c2nnn[nH]2)c1)C1(c2cccc(Cl)c2)CC1` [Example 350, 1-(3-Chlorophenyl)-N-{4-[4-(difluoromethyl)-1H-pyrazol-1-yl]-3-(1H-tetrazol-5-yl)phenyl}cyclopro-panecarboxa-mide], under setting [2], the IC50 is 0.804 µM.
Turning to `COc1ccc(-c2ccc(NC(=O)C3(c4cccc(Cl)c4)CC3)cc2-c2nnn[nH]2)cc1C` [Example 116, 1-(3-chlorophenyl)-N-[4′-methoxy-3′-methyl-2-(1H-tetrazol-5-yl)biphenyl-4-yl]cyclopropane carboxamide], the IC50 under setting [1] worked out at 0.177 µM.
Regarding `CCc1cnn(-c2ccc(NC(=O)C3(c4ccc(C)cc4F)CC3)cc2-c2nnn[nH]2)c1` [Example 375, N-[4-(4-Ethyl-1H-pyrazol-1-yl)-3-(1H-tetrazol-5-yl)phenyl]-1-(2-fluoro-4-methylphenyl)cy-clopropanecar-boxamide], under setting [2], the IC50 is 0.0606 µM.
Consider `COc1ccc(-c2ccc(NC(=O)C3(c4cc(F)cc(Cl)c4)CC3)cc2-c2nnn[nH]2)cc1OC` [Example 15, 1-(3-chloro-5-fluorophenyl)-N-[3′,4′-dimethoxy-2-(1H-tetrazol-5-yl)biphenyl-4-yl]cyclopropane carboxamide], for which the IC50 under setting [1] is 0.0409 µM.
For `CCc1ccn(-c2ccc(NC(=O)C3(c4cccc(Cl)c4)CC3)cc2-c2nnn[nH]2)n1` [Example 374, 1-(3-Chlorophenyl)-N-[4-(3-ethyl-1H-pyrazol-1-yl)-3-(1H-tetrazol-5-yl)phenyl]cyclopro-panecarboxa-mide], the IC50 under setting [2] came out at 1.89 µM.
`COc1ccc(-c2ccc(NC(=O)C3(c4ccc(F)c(F)c4)CC3)cc2-c2nnn[nH]2)cc1OC` [Example 25, 1-(3,4-difluorophenyl)-N-[3′,4′-dimethoxy-2-(1H-tetrazol-5-yl)biphenyl-4-yl]cyclopropane-carboxamide]: the IC50 reads like this: under setting [2], 0.0259 µM; under setting [1], 0.0574 µM.
As for `O=C(Nc1ccc(-c2ccc(C(F)F)nc2)c(-c2nnn[nH]2)c1)C1(c2ccc(C(F)(F)F)cc2)CC1` [Example 270, N-{4-[6-(difluoromethyl)pyridin-3-yl]-3-(1H-tetrazol-5-yl)phenyl}-1-[4-(trifluoromethyl)phenyl]cyclopro-panecarboxamide], the IC50 under setting [2] amounted to 0.0174 µM.
Same read-out and setting: under `O=C(Nc1ccc(-n2cnc(C(F)(F)F)c2)c(-c2nnn[nH]2)c1)C1(c2cccc(Cl)c2)CC1` [Example 352, 1-(3-Chlorophenyl)-N-{3-(1H-tetrazol-5-yl)-4-[4-(trifluoromethyl)-1H-imidazol-1-yl]phenyl}cyclopro-panecarboxa-mide] stands 1.2 µM.
`COc1ncccc1-c1ccc(NC(=O)C2(c3cccc(Cl)c3)CC2)cc1-c1nnn[nH]1` [Example 187, 1-(3-chlorophenyl)-N-[4-(2-methoxypyridin-3-yl)-3-(1H-tetrazol-5-yl)phenyl] cyclopropane-carboxamide]: the IC50 under setting [2] was found to be 1.62 µM.
For the compound `O=C(Nc1ccc(-n2cnc(C(F)(F)F)n2)c(-c2nnn[nH]2)c1)C1(c2ccc(F)c(F)c2)CC1` [Example 358, 1-(3,4-difluorophenyl)-N-{3-(1H-tetrazol-5-yl)-4-[3-(trifluoromethyl)-1H-1,2,4-triazol-1-yl]phenyl}cyclopro-panecarboxa-mide], under setting [2], the IC50 is 2.97 µM.
As to `COc1ccc(-c2ccc(NC(=O)C3(c4cc(F)cc(F)c4)CC3)cc2-c2nnn[nH]2)cc1OC` [Example 13, 1-(3,5-difluorophenyl)-N-[3′,4′-dimethoxy-2-(1H-tetrazol-5-yl)biphenyl-4-yl]cyclopropane carboxamide], the IC50 under setting [1] was found to be 0.0866 µM.
Same read-out and setting: for `COc1ccc(-c2ccc(NC(=O)C3(c4cccc(Cl)c4)CCC3)cc2-c2nnn[nH]2)cc1OC` [Example 62, 1-(3-chlorophenyl)-N-[3′,4′-dimethoxy-2-(1H-tetrazol-5-yl)biphenyl-4-yl]cyclobutane-carboxamide] the value was 2.43 µM.
For `COc1ccc(-c2ccc(NC(=O)C3(c4cccc(Cl)c4)CC3)cc2-c2nnn[nH]2)cc1F` [Example 315, 1-(3-chlorophenyl)-N-[3′-fluoro-4′-methoxy-2-(1H-tetrazol-5-yl)biphenyl-4-yl]cyclopropane-carboxamide], the 50% inhibitory concentration (IC50) under setting [1] was determined as 0.235 µM.
The same measure, in the same setting: for `COc1ccc(-c2ccc(NC(=O)C3(c4cccc(Cl)n4)CC3)cc2-c2nnn[nH]2)cc1OC` [Example 50, 1-(6-chloropyridin-2-yl)-N-[3′,4′-dimethoxy-2-(1H-tetrazol-5-yl)biphenyl-4-yl]cyclopropane carboxamide] the value was 0.31 µM.
With `Cc1ncc(-c2ccc(NC(=O)C3(c4cccc(Cl)c4F)CC3)cc2-c2nnn[nH]2)cn1` [Example 195, 1-(3-chloro-2-fluorophenyl)-N-[4-(2-methylpyrimidin-5-yl)-3-(1H-tetrazol-5-yl)phenyl] cyclopropane-carboxamide], the IC50 under setting [2] is 0.183 µM and the half-maximal inhibitory concentration (IC50) under setting [1] was determined as 0.311 µM.
For `O=C(Nc1ccc(-n2ccc(C(F)(F)F)n2)c(-c2nnn[nH]2)c1)C1(c2ccc(F)c(F)c2)CC1` [Example 355, 1-(3,4-Difluorophenyl)-N-{3-(1H-tetrazol-5-yl)-4-[3-(trifluoromethyl)-1H-pyrazol-1-yl]phenyl}cyclopro-panecarboxa-mide], the IC50 under setting [2] was determined as 1.88 µM.
Same read-out and setting: under `O=C(Nc1ccc(-c2ccnc(C(F)(F)F)c2)c(-c2nnn[nH]2)c1)C1(c2ccc(F)c(Cl)c2)CC1` [Example 176, 1-(3-chloro-4-fluorophenyl)-N-{3-(1H-tetrazol-5-yl)-4-[2-(trifluoromethyl)pyridin-4-yl]phenyl} cyclopropane-carboxamide] stands 0.258 µM.
With `COc1ccc(F)c(C2(C(=O)Nc3ccc(-c4ccc(OC)c(OC)c4)c(-c4nnn[nH]4)c3)CC2)c1` [Example 31, N-[3′,4′-dimethoxy-2-(1H-tetrazol-5-yl)biphenyl-4-yl]-1-(2-fluoro-5-methoxyphenyl) cyclopropane-carboxamide], under setting [1], the concentration for half-maximal inhibition (IC50) was determined as 0.212 µM.
Same read-out and setting: under `CCOc1ccc(-c2ccc(NC(=O)C3(c4cc(OC)ccc4F)CC3)cc2-c2nnn[nH]2)cn1` [Example 104, N-[4-(6-ethoxypyridin-3-yl)-3-(1H-tetrazol-5-yl)phenyl]-1-(2-fluoro-5-methoxyphenyl) cyclopropane-carboxamide] stands 0.0464 µM; under `CCOc1ccc(-c2ccc(NC(=O)C3(C4CCC(C)(C)CC4)CC3)cc2-c2nnn[nH]2)cn1` [Example 109, 1-(4,4-dimethylcyclo-hexyl)-N-[4-(6-ethoxypyridin-3-yl)-3-(1H-tetrazol-5-yl)phenyl] cyclopropane-carboxamide], 0.0122 µM.
As for `COc1cc(C2(C(=O)Nc3ccc(-c4ccc(OC)c(OC)c4)c(-c4nnn[nH]4)c3)CC2)ccc1F` [Example 33, N-[3′,4′-dimethoxy-2-(1H-tetrazol-5-yl)biphenyl-4-yl]-1-(4-fluoro-3-methoxyphenyl) cyclopropane-carboxamide], the concentration for half-maximal inhibition (IC50) came to 0.284 µM under setting [2] and 0.238 µM under setting [1].
On to `COc1ccc(-c2ccc(NC(=O)C3(c4ccccc4)CC3)cc2-c2nnn[nH]2)cc1OC` [Example 35, N-[3′,4′-dimethoxy-2-(1H-tetrazol-5-yl)biphenyl-4-yl]-1-phenylcyclo-propane-carboxamide], for which the IC50 under setting [1] was 0.213 µM.
Regarding `N#Cc1ccc(-c2ccc(NC(=O)C3(c4cccc(Cl)c4)CC3)cc2-c2nnn[nH]2)cn1` [Example 323, 1-(3-chlorophenyl)-N-[4-(6-cyanopyridin-3-yl)-3-(1H-tetrazol-5-yl)phenyl]cyclopro-panecarboxa-mide], the IC50 under setting [1] was 0.355 µM.
Take `CCOc1ccc(-c2ccc(NC(=O)C3(c4ccc(F)c(OC)c4)CC3)cc2-c2nnn[nH]2)cn1` [Example 87, N-[4-(6-ethoxypyridin-3-yl)-3-(1H-tetrazol-5-yl)phenyl]-1-(4-fluoro-3-methoxyphenyl) cyclopropane-carboxamide]: the IC50 worked out at 0.06 µM under setting [2] and 0.088 µM under setting [1].
The like results for `CCOc1cc(-c2ccc(NC(=O)C3(c4cccc(Cl)c4)CC3)cc2-c2nnn[nH]2)cc(C(F)(F)F)n1` [Example 166, 1-(3-chlorophenyl)-N-{4-[2-ethoxy-6-(trifluoromethyl)pyridin-4-yl]-3-(1H-tetrazol-5-yl)phenyl} cyclopropane-carboxamide] were, in that order, 1.13 µM and 2.16 µM.

For the origin of these results see patent US20210317092A1 (BAYER PHARMA AKTIENGESELLSCHAFT, priority 2016, published 2021).
